Experimental data reported in patent publication US12606551B2, “Salt of tetrahydroisoquinoline derivative, preparation method therefor, and medical use thereof” (ZHEJIANG HISUN PHARMACEUTICAL CO., LTD., priority 2020, dated 2026).

Target: T1, AT1R (Homo sapiens, UniProt P30556)
T1 construct: Tb (terbium) label on the receptor; expressed in transfected cells
T1 sequence (P30556 1-359): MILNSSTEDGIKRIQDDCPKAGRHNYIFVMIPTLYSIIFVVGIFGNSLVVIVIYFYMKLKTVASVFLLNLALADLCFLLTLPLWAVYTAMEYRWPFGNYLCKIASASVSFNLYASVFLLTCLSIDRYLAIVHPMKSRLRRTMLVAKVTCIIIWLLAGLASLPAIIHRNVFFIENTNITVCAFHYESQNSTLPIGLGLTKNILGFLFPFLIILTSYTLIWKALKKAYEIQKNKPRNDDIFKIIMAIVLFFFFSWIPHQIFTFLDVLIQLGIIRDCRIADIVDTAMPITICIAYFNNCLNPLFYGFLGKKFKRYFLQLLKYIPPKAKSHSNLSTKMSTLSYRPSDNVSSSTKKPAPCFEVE
Experiment: Antagonistic activity against AT1R (same method with Tb-labeled-AT1R cells)
Type: binding
Protocol: (12) Similarly, the IC50 of the antagonistic activity of the compounds of the present invention against AT1R was tested according to basically the same method, except that Tb-labeled-AT2R cells were replaced by Tb-labeled-AT1R cells.

COc1ccc(COc2c(OC)ccc3c2C[C@@H](C(=O)[O-])N(c2nc4ccc(F)cc4o2)C3)nc1.[Na+] [Compound 1]
IC50: > 10 µM
